# Read-outs that look alike come from different tables or passages of the source.
# Assays:
# Assay in all cases: qHTS cell viability (CellTiter-Glo, 72 h; primary and follow-up small molecule screen)
# Type in all cases: cell-based, human
# [1] = system: WAGA cells (VP-MCC)
# [2] = system: MCC13 cells (VN-MCC)
# [3] = system: UISO cells (VN-MCC)
# [4] = system: MKL-2 cells (VP-MCC)
# [5] = system: MKL-1 cells (VP-MCC)
# [6] = system: MCC26 cells (VN-MCC)
# [7] = follow-up screen, WAGA, replicate 1
# [8] = follow-up screen, WAGA, replicate 2
# [9] = follow-up screen, WAGA, replicate 3
# [10] = follow-up screen, MCC13, replicate 1
# [11] = follow-up screen, MCC13, replicate 2
# [12] = follow-up screen, MCC13, replicate 3
# [13] = follow-up screen, UISO, replicate 1
# [14] = follow-up screen, UISO, replicate 2
# [15] = follow-up screen, UISO, replicate 3
# [16] = follow-up screen, MKL-2, replicate 1
# [17] = follow-up screen, MKL-2, replicate 2
# [18] = follow-up screen, MKL-2, replicate 3
# [19] = follow-up screen, MKL-1, replicate 1
# [20] = follow-up screen, MKL-1, replicate 2
# [21] = follow-up screen, MKL-1, replicate 3
# [22] = follow-up screen, MCC26, replicate 1
# [23] = follow-up screen, MCC26, replicate 2
# [24] = follow-up screen, MCC26, replicate 3
SMILES,"Area under the dose-response curve (AUC) WAGA Replicate 1 [1, 7]","Area under the dose-response curve (AUC) WAGA Replicate 2 [1, 8]","Area under the dose-response curve (AUC) WAGA Replicate 3 [1, 9]","Area under the dose-response curve (AUC) MCC13 Replicate 1 [2, 10]","Area under the dose-response curve (AUC) MCC13 Replicate 2 [2, 11]","Area under the dose-response curve (AUC) MCC13 Replicate 3 [2, 12]","Area under the dose-response curve (AUC) UISO Replicate 1 [3, 13]","Area under the dose-response curve (AUC) UISO Replicate 2 [3, 14]","Area under the dose-response curve (AUC) UISO Replicate 3 [3, 15]","Area under the dose-response curve (AUC) MKL-2 Replicate 1 [4, 16]","Area under the dose-response curve (AUC) MKL-2 Replicate 2 [4, 17]","Area under the dose-response curve (AUC) MKL-2 Replicate 3 [4, 18]","Area under the dose-response curve (AUC) MKL-1 Replicate 1 [5, 19]","Area under the dose-response curve (AUC) MKL-1 Replicate 2 [5, 20]","Area under the dose-response curve (AUC) MKL-1 Replicate 3 [5, 21]","Area under the dose-response curve (AUC) MCC26 Replicate 1 [6, 22]","Area under the dose-response curve (AUC) MCC26 Replicate 2 [6, 23]","Area under the dose-response curve (AUC) MCC26 Replicate 3 [6, 24]",also measured
[O-][n+]1ccccc1SSc1cccc[n+]1[O-] [Dipyrithione],319.9,346.1,356.9,333.5,320.8,288.3,241.8,283.0,225.1,287.6,277.7,248.6,254.8,246.8,245.5,305.7,302.8,280.4,–
CCN(CC)C(=S)SSC(=S)N(CC)CC [Disulfiram],389.6,433.6,454.9,436.7,415.1,342.5,247.9,258.4,254.5,243.8,235.0,298.1,287.1,274.6,256.7,398.0,401.3,322.7,–
CS[C@H]1SC[C@H]2C(=O)N(C)[C@@H](C(C)C)C(=O)OC[C@@H](NC(=O)c3cnc4ccccc4n3)C(=O)N[C@@H](C)C(=O)N(C)[C@@H]1C(=O)N(C)[C@@H](C(C)C)C(=O)OC[C@@H](NC(=O)c1cnc3ccccc3n1)C(=O)N[C@@H](C)C(=O)N2C [Echinomycin],–,–,–,–,–,–,–,–,–,–,–,–,–,–,–,–,–,–,Area under the dose-response curve (AUC) WAGA Replicate 1 [1]: 225.7; Area under the dose-response curve (AUC) WAGA Replicate 2 [1]: 172.6; Area under the dose-response curve (AUC) WAGA Replicate 3 [1]: 225.4; Area under the dose-response curve (AUC) MCC13 Replicate 1 [2]: 310.2; Area under the dose-response curve (AUC) MCC13 Replicate 2 [2]: 265.0; Area under the dose-response curve (AUC) MCC13 Replicate 3 [2]: 244.8; Area under the dose-response curve (AUC) UISO Replicate 1 [3]: 140.9; Area under the dose-response curve (AUC) UISO Replicate 2 [3]: 135.8; Area under the dose-response curve (AUC) UISO Replicate 3 [3]: 136.4; Area under the dose-response curve (AUC) MKL-2 Replicate 1 [4]: 166.1; Area under the dose-response curve (AUC) MKL-2 Replicate 2 [4]: 154.0; Area under the dose-response curve (AUC) MKL-2 Replicate 3 [4]: 225.2; Area under the dose-response curve (AUC) MKL-1 Replicate 1 [5]: 235.9; Area under the dose-response curve (AUC) MKL-1 Replicate 2 [5]: 188.8; Area under the dose-response curve (AUC) MKL-1 Replicate 3 [5]: 250.5; Area under the dose-response curve (AUC) MCC26 Replicate 1 [6]: 267.2; Area under the dose-response curve (AUC) MCC26 Replicate 2 [6]: 264.2; Area under the dose-response curve (AUC) MCC26 Replicate 3 [6]: 215.9
